Test results reported in US11840497B2, “4-(p-quinonyl)-2-hydroxybutanamide derivatives for treatment of mitochondrial diseases” (PTC Therapeutics, Inc., priority 2007, dated 2023).
pEC50: −log10 of the molar value. Read-outs that look alike come from different tables or passages of the source.

How the values were obtained:
[1] = tested on: human dermal fibroblasts from LHON patients; assay: Rescue of BSO-stressed fibroblasts from LHON patients (Example C); format: cell-based; conditions: Fibroblast, LHON fibroblasts GM03858, screen as Example A, read-out: protection against LHON, EC50
Experimental: The compounds were tested for their ability to rescue human dermal fibroblasts from LHON patients from oxidative stress.

[2] = tested on: Human dermal fibroblasts from Friedreich's Ataxia patients; assay: Rescue of BSO-stressed FRDA fibroblasts (Example A); format: cell-based; conditions: FRDA fibroblasts GM04078, 1 mM BSO
Experimental: Test samples, 4 reference compounds (idebenone, decylubiquinone, Trolox and α-tocopherol acetate), and solvent controls were tested for their ability to rescue FRDA fibroblasts stressed by addition of L-buthionine (S,R)-sulfoximine (BSO), as described in Jauslin et al., Hum. Mol. Genet. […] Mol. Genet. […] This specific BSO-mediated cell death can be prevented by administration of antioxidants or molecules involved in the antioxidant pathway, such as α-tocopherol, selenium, or small molecule glutathione peroxidase mimetics. However, antioxidants differ in their potency, i.e. the concentration at which they are able to rescue BSO-stressed FRDA fibroblasts.
Fetal Calf Serum was obtained from PAA Laboratories. Basic fibroblast growth factor and epidermal growth factor were purchased from PeproTech. Penicillin-streptomycin-glutamine mix, L-buthionine (S,R)-sulfoximine, (+)-α-tocopherol acetate, decylubiquinone, and insulin from bovine pancreas were purchased from Sigma. Trolox (6-Hydroxy-2,5,7,8-tetramethylchroman-2-carboxylic acid) was obtained from Fluka. Idebenone was obtained from Chemo Iberica. Calcein AM was purchased from Molecular Probes. Cell culture medium was made by combining 125 ml M199 EBS, 50 ml Fetal Calf Serum, 100 U/ml penicillin, 100 μg/ml streptomycin, 2 mM glutamine, 10 μg/ml insulin, 10 ng/ml EGF, and 10 ng/ml bFGF; MEM EBS was added to make the volume up to 500 ml. […] During the course of the experiments, this solution was stored at +4° C. The cells were obtained from the Coriell Cell Repositories (Camden, NJ; repository number GM04078) and grown in 10 cm tissue culture plates. Every third day, they were split at a 1:3 ratio.
The test samples were supplied in 1.5 ml glass vials. […] Once dissolved, they were stored at −20° C. Reference antioxidants (idebenone, decylubiquinone, α-tocopherol acetate and trolox) were dissolved in DMSO.
Test samples were screened according to the following protocol: A culture with FRDA fibroblasts was started from a 1 ml vial with approximately 500,000 cells stored in liquid nitrogen. […] Once confluent, fibroblasts were harvested. […] The remaining cells were distributed in 10 cm cell culture plates (500,000 cells/plate) for propagation. The plates were incubated overnight at 37° C. in a atmosphere with 95% humidity and 5% CO2 to allow attachment of the cells to the culture plate.
MTP medium (243 μl) was added to a well of the microtiter plate. […] Serial dilutions from the master solution were made. The period between the single dilution steps was kept as short as possible (generally less than 1 second).
Plates were kept overnight in the cell culture incubator. The next day, 10 μl of a 10 mM BSO solution were added to the wells, resulting in a 1 mM final BSO concentration. Forty-eight hours later, three plates were examined under a phase-contrast microscope to verify that the cells in the 0% control (wells E1-H1) were clearly dead. The medium from all plates was discarded, and the remaining liquid was removed by gently tapping the plate inversed onto a paper towel.
The plates were incubated for 50-70 minutes at room temperature. After that time the PBS was discarded, the plate gently tapped on a paper towel and fluorescence (excitation/emission wavelengths of 485 nm and 525 nm, respectively) was read on a Gemini fluorescence reader. Data was imported into Microsoft Excel (EXCEL is a registered trademark of Microsoft Corporation for a spreadsheet program) and used to calculate the EC50 concentration for each compound.
The compounds were tested three times, i.e., the experiment was performed three times, the passage number of the cells increasing by one with every repetition.
The viability of non-BSO treated fibroblasts was set as 100%, and the viability of the BSO- and compound-treated cells was calculated as relative to this value.

[3] = Calcein AM viability, average of three values, read-out: EC50 Average
[4] = Calcein AM viability, experiment 1 of 3, read-out: EC50 Value 1
[5] = Calcein AM viability, experiment 2 of 3, read-out: EC50 Value 2
[6] = Calcein AM viability, experiment 3 of 3, read-out: EC50 Value 3
[7] = read-out: protection against FRDA, EC50

## CC1=C(C)C(=O)C(CCC(C)(O)C(=O)NCCC(C)C)=C(C)C1=O (centres unmarked) [Example 7, 2-Hydroxy-N-isopentyl-2-methyl-4-(2,4,5-trimethyl-3,6-dioxocyclohexa-1,4-dienyl)butanamide]
[1]
  pEC50: > 7.00

## COC1=C(OC)C(=O)C(CCCCCCCCCCO)=C(C)C1=O [Idebenone, reference compound]
[2]; [3]
  pEC50: 5.92
[2]; [4]
  pEC50: 5.82
[2]; [5]
  pEC50: 6.00
[2]; [6]
  pEC50: 6.00

## CC1=C(C)C(=O)C(CCC(C)(O)C(=O)NCCc2ccccc2F)=C(C)C1=O (centres unmarked) [N-(2-fluorophenethyl)-2-hydroxy-2-methyl-4-(2,4,5-trimethyl-3,6-dioxocyclohexa-1,4-dienyl)butanamide]
[2]; [7]
  pEC50: > 7.00
[1]
  pEC50: > 7.00

## Cc1c(C)c2c(c(C)c1O)CCC(C)(C(=O)O)O2 (centres unmarked) [Trolox, 6-Hydroxy-2,5,7,8-tetramethylchroman-2-carboxylic acid, reference compound]
[2]; [3]
  pEC50: 5.06
[2]; [4]
  pEC50: 5.05
[2]; [5]
  pEC50: 5.05
[2]; [6]
  pEC50: 5.10

## CC1=C(C)C(=O)C(CCC(C)(O)C(=O)N2CCN(C(=O)c3ccccc3)CC2)=C(C)C1=O (centres unmarked) [2-(4-(4-benzoylpiperazin-1-yl)-3-hydroxy-3-methyl-4-oxobutyl)-3,5,6-trimethylcyclohexa-2,5-diene-1,4-dione]
[1]
  pEC50: > 7.00

## CC1=C(C)C(=O)C(CCC(C)(O)C(=O)N2CCCCC2)=C(C)C1=O (centres unmarked) [Example 42, 2-(3-Hydroxy-3-methyl-4-oxo-4-(piperidin-1-yl)butyl)-3,5,6-trimethylcyclohexa-2,5-diene-1,4-dione]
[1]
  pEC50: > 7.00

## CC1=C(C)C(=O)C(CCC(C)(O)C(=O)NCC(C)O)=C(C)C1=O (centres unmarked) [Example 30, 2-Hydroxy-N-(2-hydroxypropyl)-2-methyl-4-(2,4,5-trimethyl-3,6-dioxocyclohexa-1,4-dienyl)butanamide]
[2]; [7]
  pEC50: > 7.00
[1]
  pEC50: > 7.00

## CC1=C(C)C(=O)C(CC[C@](C)(O)C(=O)N2CCC(O)CC2)=C(C)C1=O [(S)-2-(3-hydroxy-4-(4-hydroxypiperidin-1-yl)-3-methyl-4-oxobutyl)-3,5,6-trimethylcyclohexa-2,5-diene-1,4-dione]
[2]; [7]
  pEC50: > 7.00
[1]
  pEC50: > 7.00

## CC1=C(C)C(=O)C(CC[C@@](C)(O)C(=O)N2CCC(O)CC2)=C(C)C1=O [(R)-2-(3-hydroxy-4-(4-hydroxypiperidin-1-yl)-3-methyl-4-oxobutyl)-3,5,6-trimethylcyclohexa-2,5-diene-1,4-dione]
[2]; [7]
  pEC50: > 7.00
[1]
  pEC50: > 7.00

## CC1=C(C)C(=O)C(CCC(C)(O)C(=O)NCc2ccncc2)=C(C)C1=O (centres unmarked) [2-hydroxy-2-methyl-N-(pyridin-4-ylmethyl)-4-(2,4,5-trimethyl-3,6-dioxocyclohexa-1,4-dienyl)butanamide]
[1]
  pEC50: > 7.00

## CC(=O)Oc1c(C)c(C)c2c(c1C)CCC(C)(CCC[C@H](C)CCC[C@H](C)CCCC(C)C)O2 (stereo partly drawn) [alpha-tocopherol acetate, (+)-α-tocopherol acetate, reference compound]
[2]; [3]
  pEC50: 6.52
[2]; [4]
  pEC50: 6.40
[2]; [5]
  pEC50: 6.82
[2]; [6]
  pEC50: 6.46

## CC1=C(C)C(=O)C(CCC(C)(O)C(=O)N2CCCCCC2)=C(C)C1=O (centres unmarked) [2-(4-(azepan-1-yl)-3-hydroxy-3-methyl-4-oxobutyl)-3,5,6-trimethylcyclohexa-2,5-diene-1,4-dione]
[1]
  pEC50: > 7.00

## CC1=C(C)C(=O)C(CCC(C)(O)C(=O)NCCCS(C)(=O)=O)=C(C)C1=O (centres unmarked) [2-hydroxy-2-methyl-N-(3-(methylsulfonyl)propyl)-4-(2,4,5-trimethyl-3,6-dioxocyclohexa-1,4-dienyl)butanamide]
[1]
  pEC50: > 7.00

## CC1=C(C)C(=O)C(CCC(C)(O)C(=O)NCCc2cccc(F)c2)=C(C)C1=O (centres unmarked) [N-(3-fluorophenethyl)-2-hydroxy-2-methyl-4-(2,4,5-trimethyl-3,6-dioxocyclohexa-1,4-dienyl)butanamide]
[2]; [7]
  pEC50: > 7.00
[1]
  pEC50: > 7.00

## CCCCCCCCCCC1=C(C)C(=O)C(OC)=C(OC)C1=O [decylubiquinone, reference compound]
[2]; [3]
  pEC50: 7.42
[2]; [4]
  pEC50: 7.30
[2]; [5]
  pEC50: 7.46
[2]; [6]
  pEC50: 7.52
